Results taken from patent publication US10457691B2, “Macrocyclic kinase inhibitors and uses thereof” (Dana-Farber Cancer Institute, Inc., priority 2014, dated 2019).

What was measured:
Format in all cases: biochemical
Settings in all cases: read-out: Activity of the protein kinase when treated with compound I-1 (% control)
CAMKKb = CAMKKb (Homo sapiens, UniProt Q96RR4); experiment: Protein kinase assay ([γ-32P] ATP), CAMKKb
Description: (§1) In another set of experiments, the activities of the compounds described herein against various protein kinases were determined according to the methods reported in Hastie et al., Nature Protocols, 2006, 1, 968-971.
(§2) Enzyme dilution buffer. This buffer consisted of 50 mM Tris-HCl, pH 7.5, 0.1 mM EGTA, 1 mg ml^−1 bovine serum albumin and 0.1% (vol/vol) 2-mercaptoethanol.
(§3) 10× concentrated assay buffer. An assay buffer of 500 mM Tris-HCl, pH 7.5, 1 mM EGTA, and 100 mM magnesium acetate was used for assay of a wide variety of protein kinases. In some experiments, other cofactors were included (e.g., calcium ions and calmodulin were included for assay of calcium-calmodulindependent protein kinases).
(§4) 1 mM [γ-^32P] ATP. The specific activity of the [γ-^32P] ATP solution was 1×10^5 to 1×10^6 c.p.m. per nmol depending on what was needed to produce an optimal signal/noise ratio. […] To measure the concentration of ATP, a sample of such a stock solution was diluted to 20 μM, and the absorbance of the diluted sample was measured at 259 nm. The absorbance of a 20-μM stock solution of ATP at 259 nm was about 0.31. […] ATP to produce a radioactivity of 1×10^5 to 1×10^6 c.p.m. per nmol. […]
(§5) 13) Measure radioactivity in the samples by Cerenkov counting (e.g., without liquid scintillation fluid) in a liquid scintillation counter using a “^32P program”. […]

CHK2 = CHK2 (Homo sapiens, UniProt O96017); experiment: Protein kinase assay ([γ-32P] ATP), CHK2
Description: as §1, §2, §3, §4, §5

EPH-B3 = EPH-B3 (Homo sapiens, UniProt P54753); experiment: Protein kinase assay ([γ-32P] ATP), EPH-B3
Description: as §1, §2, §3, §4, §5

GCK = GCK (Homo sapiens, UniProt Q12851); experiment: Protein kinase assay ([γ-32P] ATP), GCK
Description: as §1, §2, §3, §4, §5

HIPK3 = HIPK3 (Homo sapiens, UniProt Q9H422); experiment: Protein kinase assay ([γ-32P] ATP), HIPK3
Description: as §1, §2, §3, §4, §5

IKKe = IKKe (Homo sapiens, UniProt Q14164); experiment: Protein kinase assay ([γ-32P] ATP), IKKe
Description: as §1, §2, §3, §4, §5

IR = IR (Homo sapiens, UniProt P06213); experiment: Protein kinase assay ([γ-32P] ATP), IR
Description: as §1, §2, §3, §4, §5

MKK6 = MKK6 (Homo sapiens, UniProt P52564); experiment: Protein kinase assay ([γ-32P] ATP), MKK6
Description: as §1, §2, §3, §4, §5

MNK1 = MNK1 (Homo sapiens, UniProt Q9BUB5); experiment: Protein kinase assay ([γ-32P] ATP), MNK1
Description: as §1, §2, §3, §4, §5

NEK6 = NEK6 (Homo sapiens, UniProt Q9HC98); experiment: Protein kinase assay ([γ-32P] ATP), NEK6
Description: as §1, §2, §3, §4, §5

PAK2 = PAK2 (Homo sapiens, UniProt Q13177); experiment: Protein kinase assay ([γ-32P] ATP), PAK2
Description: as §1, §2, §3, §4, §5

PAK5 = PAK5 (Homo sapiens, UniProt Q9P286); experiment: Protein kinase assay ([γ-32P] ATP), PAK5
Description: as §1, §2, §3, §4, §5

PKBb = PKBb (Homo sapiens, UniProt P31751); experiment: Protein kinase assay ([γ-32P] ATP), PKBb
Description: as §1, §2, §3, §4, §5

PKCγ = PKCγ (Homo sapiens, UniProt P05129); experiment: Protein kinase assay ([γ-32P] ATP), PKCγ
Description: as §1, §2, §3, §4, §5

PRAK = PRAK (Homo sapiens, UniProt Q8IW41); experiment: Protein kinase assay ([γ-32P] ATP), PRAK
Description: as §1, §2, §3, §4, §5

STK33 = STK33 (Homo sapiens, UniProt Q9BYT3); experiment: Protein kinase assay ([γ-32P] ATP), STK33
Description: as §1, §2, §3, §4, §5

VEG-FR = VEG-FR (Homo sapiens, UniProt P17948); experiment: Protein kinase assay ([γ-32P] ATP), VEG-FR
Description: as §1, §2, §3, §4, §5

[1] = 0.1 μM of compound I-1, DMSO control = 100%
[2] = 1 μM of compound I-1, DMSO control = 100%

IKKe, sequence (Q14164 whole entry): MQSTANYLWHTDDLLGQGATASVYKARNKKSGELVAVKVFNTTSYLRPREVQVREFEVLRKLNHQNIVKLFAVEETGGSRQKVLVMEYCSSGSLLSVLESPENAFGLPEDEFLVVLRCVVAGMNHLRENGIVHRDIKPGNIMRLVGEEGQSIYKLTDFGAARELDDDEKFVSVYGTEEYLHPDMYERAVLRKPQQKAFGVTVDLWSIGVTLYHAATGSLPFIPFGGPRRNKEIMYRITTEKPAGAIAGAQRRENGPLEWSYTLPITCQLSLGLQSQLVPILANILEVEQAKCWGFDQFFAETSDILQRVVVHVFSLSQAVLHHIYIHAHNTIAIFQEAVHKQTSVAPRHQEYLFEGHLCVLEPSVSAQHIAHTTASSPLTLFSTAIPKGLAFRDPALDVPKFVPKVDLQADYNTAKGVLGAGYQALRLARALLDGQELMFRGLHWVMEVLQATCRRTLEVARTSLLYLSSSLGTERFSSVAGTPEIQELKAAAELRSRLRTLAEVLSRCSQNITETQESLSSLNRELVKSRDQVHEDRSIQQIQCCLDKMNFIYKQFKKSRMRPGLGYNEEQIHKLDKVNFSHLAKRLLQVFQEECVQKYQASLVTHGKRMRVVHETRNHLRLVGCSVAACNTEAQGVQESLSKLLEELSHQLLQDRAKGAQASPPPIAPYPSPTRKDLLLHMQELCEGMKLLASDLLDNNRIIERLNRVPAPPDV
CAMKKb, sequence (Q96RR4 whole entry): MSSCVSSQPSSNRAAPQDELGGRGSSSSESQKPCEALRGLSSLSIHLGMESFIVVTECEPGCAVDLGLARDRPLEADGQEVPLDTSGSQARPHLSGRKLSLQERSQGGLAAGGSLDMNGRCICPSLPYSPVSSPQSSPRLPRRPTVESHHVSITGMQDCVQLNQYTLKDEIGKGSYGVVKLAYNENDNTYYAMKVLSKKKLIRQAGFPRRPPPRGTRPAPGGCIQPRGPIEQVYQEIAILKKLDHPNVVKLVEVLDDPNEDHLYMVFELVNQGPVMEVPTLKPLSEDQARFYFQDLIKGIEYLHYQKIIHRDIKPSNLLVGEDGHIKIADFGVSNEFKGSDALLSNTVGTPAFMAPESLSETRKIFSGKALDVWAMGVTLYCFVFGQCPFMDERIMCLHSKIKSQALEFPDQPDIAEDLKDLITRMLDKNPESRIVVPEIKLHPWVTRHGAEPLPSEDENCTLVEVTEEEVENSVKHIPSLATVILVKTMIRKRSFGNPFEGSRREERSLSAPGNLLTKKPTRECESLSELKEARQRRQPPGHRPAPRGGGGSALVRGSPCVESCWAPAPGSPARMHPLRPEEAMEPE
PKBb, sequence (P31751 whole entry): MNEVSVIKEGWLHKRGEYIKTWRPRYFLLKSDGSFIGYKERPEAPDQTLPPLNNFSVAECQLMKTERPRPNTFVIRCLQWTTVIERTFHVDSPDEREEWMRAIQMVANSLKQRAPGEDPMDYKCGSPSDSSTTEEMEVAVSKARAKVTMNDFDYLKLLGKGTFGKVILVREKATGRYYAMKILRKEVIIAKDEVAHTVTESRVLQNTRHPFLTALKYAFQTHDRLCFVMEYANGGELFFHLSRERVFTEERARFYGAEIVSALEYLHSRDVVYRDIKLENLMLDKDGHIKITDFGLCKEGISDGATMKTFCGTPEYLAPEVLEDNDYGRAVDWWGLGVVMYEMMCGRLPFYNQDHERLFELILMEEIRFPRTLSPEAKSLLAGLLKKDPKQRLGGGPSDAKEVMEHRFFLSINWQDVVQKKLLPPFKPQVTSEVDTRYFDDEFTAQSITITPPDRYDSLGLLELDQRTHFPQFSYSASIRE
EPH-B3, sequence (P54753 34-998): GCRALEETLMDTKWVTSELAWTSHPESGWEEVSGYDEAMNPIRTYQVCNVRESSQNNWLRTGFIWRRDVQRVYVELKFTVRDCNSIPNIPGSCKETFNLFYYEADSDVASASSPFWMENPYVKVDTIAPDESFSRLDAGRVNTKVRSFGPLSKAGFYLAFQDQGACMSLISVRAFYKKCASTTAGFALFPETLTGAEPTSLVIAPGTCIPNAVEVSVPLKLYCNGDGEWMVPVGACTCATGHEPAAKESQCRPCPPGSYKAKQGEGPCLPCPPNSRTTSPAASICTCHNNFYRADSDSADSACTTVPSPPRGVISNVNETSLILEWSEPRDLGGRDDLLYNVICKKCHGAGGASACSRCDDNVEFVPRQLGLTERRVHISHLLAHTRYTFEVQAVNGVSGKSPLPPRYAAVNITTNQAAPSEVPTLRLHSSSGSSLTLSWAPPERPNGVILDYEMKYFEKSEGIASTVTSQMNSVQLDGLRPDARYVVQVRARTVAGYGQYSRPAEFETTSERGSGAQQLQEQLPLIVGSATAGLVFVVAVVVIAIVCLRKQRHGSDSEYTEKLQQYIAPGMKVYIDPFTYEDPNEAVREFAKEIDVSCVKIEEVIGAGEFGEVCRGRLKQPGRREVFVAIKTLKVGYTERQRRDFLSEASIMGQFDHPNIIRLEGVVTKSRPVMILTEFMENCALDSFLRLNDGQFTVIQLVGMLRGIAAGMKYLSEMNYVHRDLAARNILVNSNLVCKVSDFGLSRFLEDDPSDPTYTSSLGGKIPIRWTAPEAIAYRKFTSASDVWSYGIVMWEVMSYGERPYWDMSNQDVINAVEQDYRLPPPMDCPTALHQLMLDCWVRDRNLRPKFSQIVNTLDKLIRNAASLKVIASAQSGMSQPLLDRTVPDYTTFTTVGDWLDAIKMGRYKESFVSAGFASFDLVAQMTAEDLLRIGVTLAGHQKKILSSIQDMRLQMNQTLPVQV
STK33, sequence (Q9BYT3 whole entry, species assumed): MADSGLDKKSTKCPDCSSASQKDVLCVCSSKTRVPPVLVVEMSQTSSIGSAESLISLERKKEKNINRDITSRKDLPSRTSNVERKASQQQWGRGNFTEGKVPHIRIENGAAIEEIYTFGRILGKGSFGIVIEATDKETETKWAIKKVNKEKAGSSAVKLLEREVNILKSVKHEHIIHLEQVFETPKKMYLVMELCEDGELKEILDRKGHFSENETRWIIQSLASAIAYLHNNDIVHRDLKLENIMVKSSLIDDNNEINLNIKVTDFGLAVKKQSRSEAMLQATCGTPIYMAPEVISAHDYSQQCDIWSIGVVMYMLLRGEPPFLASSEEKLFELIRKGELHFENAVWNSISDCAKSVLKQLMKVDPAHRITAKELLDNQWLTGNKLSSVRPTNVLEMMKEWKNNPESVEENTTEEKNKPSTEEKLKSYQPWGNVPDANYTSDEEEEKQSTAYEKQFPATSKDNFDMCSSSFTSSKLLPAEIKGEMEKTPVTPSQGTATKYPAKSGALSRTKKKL
PAK2, sequence (Q13177 whole entry): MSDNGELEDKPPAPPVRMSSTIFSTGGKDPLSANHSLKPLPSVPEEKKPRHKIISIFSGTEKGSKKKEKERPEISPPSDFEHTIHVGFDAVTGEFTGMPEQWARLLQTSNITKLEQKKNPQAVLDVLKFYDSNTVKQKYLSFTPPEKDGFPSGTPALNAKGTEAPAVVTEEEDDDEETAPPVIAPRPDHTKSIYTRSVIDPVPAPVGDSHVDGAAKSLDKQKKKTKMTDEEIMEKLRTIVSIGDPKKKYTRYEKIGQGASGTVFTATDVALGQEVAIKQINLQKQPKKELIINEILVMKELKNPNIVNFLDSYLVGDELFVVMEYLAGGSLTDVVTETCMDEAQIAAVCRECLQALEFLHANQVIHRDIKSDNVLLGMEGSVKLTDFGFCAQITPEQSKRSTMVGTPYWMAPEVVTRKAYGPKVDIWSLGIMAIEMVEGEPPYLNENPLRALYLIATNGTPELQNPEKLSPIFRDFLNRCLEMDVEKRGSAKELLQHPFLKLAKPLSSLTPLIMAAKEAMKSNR
PRAK, sequence (Q8IW41 whole entry, species assumed): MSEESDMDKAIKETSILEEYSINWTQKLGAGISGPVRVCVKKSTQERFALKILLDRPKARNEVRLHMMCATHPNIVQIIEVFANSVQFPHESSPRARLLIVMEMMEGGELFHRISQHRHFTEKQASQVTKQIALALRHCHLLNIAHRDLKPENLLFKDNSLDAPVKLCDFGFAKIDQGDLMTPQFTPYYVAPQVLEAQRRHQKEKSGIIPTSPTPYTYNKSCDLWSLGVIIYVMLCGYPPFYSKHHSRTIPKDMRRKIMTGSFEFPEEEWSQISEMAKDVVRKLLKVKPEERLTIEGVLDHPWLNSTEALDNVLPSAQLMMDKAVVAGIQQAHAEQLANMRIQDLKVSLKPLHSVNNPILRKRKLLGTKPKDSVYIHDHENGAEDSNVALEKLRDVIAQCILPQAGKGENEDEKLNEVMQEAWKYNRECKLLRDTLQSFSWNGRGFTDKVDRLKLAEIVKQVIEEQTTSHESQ

## Cc1cccc(C)c1NC(=O)N1C/C=C\COc2cccc(c2)Nc2cc1ncn2 [Compound I-1]
CAMKKb; [1]
  remaining activity at 0.1 µM: 101%
CAMKKb; [2]
  remaining activity at 1 µM: 88%
CHK2; [1]
  remaining activity at 0.1 µM: 107%
CHK2; [2]
  remaining activity at 1 µM: 72%
EPH-B3; [1]
  remaining activity at 0.1 µM: 25%
EPH-B3; [2]
  remaining activity at 1 µM: 2%
GCK; [1]
  remaining activity at 0.1 µM: 71%
GCK; [2]
  remaining activity at 1 µM: 16%
HIPK3; [1]
  remaining activity at 0.1 µM: 89%
HIPK3; [2]
  remaining activity at 1 µM: 81%
IKKe; [1]
  remaining activity at 0.1 µM: 111%
IKKe; [2]
  remaining activity at 1 µM: 90%
IR; [1]
  remaining activity at 0.1 µM: 102%
IR; [2]
  remaining activity at 1 µM: 93%
MKK6; [1]
  remaining activity at 0.1 µM: 101%
MKK6; [2]
  remaining activity at 1 µM: 93%
MNK1; [1]
  remaining activity at 0.1 µM: 105%
MNK1; [2]
  remaining activity at 1 µM: 90%
NEK6; [1]
  remaining activity at 0.1 µM: 91%
NEK6; [2]
  remaining activity at 1 µM: 87%
PAK2; [1]
  remaining activity at 0.1 µM: 100%
PAK2; [2]
  remaining activity at 1 µM: 77%
PAK5; [1]
  remaining activity at 0.1 µM: 90%
PAK5; [2]
  remaining activity at 1 µM: 64%
PKBb; [1]
  remaining activity at 0.1 µM: 102%
PKBb; [2]
  remaining activity at 1 µM: 89%
PKCγ; [1]
  remaining activity at 0.1 µM: 98%
PKCγ; [2]
  remaining activity at 1 µM: 92%
PRAK; [1]
  remaining activity at 0.1 µM: 107%
PRAK; [2]
  remaining activity at 1 µM: 84%
STK33; [1]
  remaining activity at 0.1 µM: 116%
STK33; [2]
  remaining activity at 1 µM: 100%
VEG-FR; [1]
  remaining activity at 0.1 µM: 49%
VEG-FR; [2]
  remaining activity at 1 µM: 7%
